According to ChEMBL document CHEMBL3885861, “Open TG-GATES”:

Species on record: Rattus norvegicus
Assay: Open TG-GATES - Regimen: Single
Assay type: toxicity, organism-based, Sprague-Dawley
Design: regimen Single, gender Male, age 6 weeks
Details: in vivo, po, 0 mg/kg, route gavage, dose level Control; for APTT / Bas / Eos / Fbg / Hb / Ht / Lym / MCH / MCHC / MCV / Mono / Neu / PT / Plat / RBC / Ret / WBC: tissue Blood; for KIDNEY_L / KIDNEY_R / KIDNEY_TOTAL: tissue Kidney; for LIVER: tissue Liver; for A/G / ALP / ALT / AST / BUN / CRE / Ca / Cl / DBIL / GLC / IP / K / LDH / Na / PL / RALB / TBIL / TC / TG / TP / gamma-GTP: tissue Plasma

`CCOC(=O)[C@H](CCc1ccccc1)N[C@@H](C)C(=O)N1CCC[C@H]1C(=O)O` was tested, and the TERMINAL_BW (3 h) was 219.5 g, the APTT (3 h) was 16.4 s and the Bas (3 h) was 0%. For the same compound, the Eos (3 h) was 1%, the Fbg (3 h) was 205.6 mg/dL and the Hb (3 h) was 13.1 g/dL. For the same compound, the Ht (3 h) was 39.6%, the Lym (3 h) was 78.2% and the MCH (3 h) was 21.9 pg. The MCHC (3 h) was 33%, the MCV (3 h) was 66.3 fL and the Mono (3 h) was 8.2%. For the same compound, the Neu (3 h) was 13%, the PT (3 h) was 12.1 s and the Plat (3 h) was 115.4 x10_4/uL. For the same compound, the RBC (3 h) was 596.8 x10_4/ul, the Ret (3 h) was 9.2% and the WBC (3 h) was 96.8 x10_2/uL. It also gave a KIDNEY_L (3 h) of 1 g, a KIDNEY_R (3 h) of 1 g and a KIDNEY_TOTAL (3 h) of 2 g. For the same compound, the LIVER (3 h) was 10.5 g, the A/G (3 h) was 2.2 and the ALP (3 h) was 725.4 IU/L. For the same compound, the ALT (3 h) was 37.6 IU/L, the AST (3 h) was 66.2 IU/L and the BUN (3 h) was 13.8 mg/dL. For the same compound, the CRE (3 h) was 0.5 mg/dL, the Ca (3 h) was 11 mg/dL and the Cl (3 h) was 105.4 meq/L. For the same compound, the DBIL (3 h) was 0.008 mg/dL, the GLC (3 h) was 196.6 mg/dL and the IP (3 h) was 10.2 mg/dL. The K (3 h) was 4.8 meq/L, the LDH (3 h) was 79.2 IU/L and the Na (3 h) was 140.2 meq/L. The PL (3 h) was 146 mg/dL, the RALB (3 h) was 3.7 g/dL and the TBIL (3 h) was 0.3 mg/dL. It also gave a TC (3 h) of 77 mg/dL, a TG (3 h) of 70.8 mg/dL and a TP (3 h) of 5.3 g/dL. For the same compound, the gamma-GTP (3 h) was 1.4 IU/L, the TERMINAL_BW (6 h) was 212.8 g and the APTT (6 h) was 16.4 s. The Bas (6 h) was 0%, the Eos (6 h) was 1% and the Fbg (6 h) was 205.2 mg/dL. It also gave a Hb (6 h) of 13.2 g/dL, a Ht (6 h) of 39.9% and a Lym (6 h) of 76.2%. It also gave an MCH (6 h) of 21.6 pg, an MCHC (6 h) of 33% and an MCV (6 h) of 65.4 fL. The Mono (6 h) was 6.4%, the Neu (6 h) was 16.6% and the PT (6 h) was 12.2 s. The Plat (6 h) was 116.2 x10_4/uL, the RBC (6 h) was 609.4 x10_4/ul and the Ret (6 h) was 8.4%. It also gave a WBC (6 h) of 118.4 x10_2/uL, a KIDNEY_L (6 h) of 0.9 g and a KIDNEY_R (6 h) of 0.9 g. It also gave a KIDNEY_TOTAL (6 h) of 1.9 g, an LIVER (6 h) of 9.5 g and an A/G (6 h) of 2.2. It also gave an ALP (6 h) of 837.6 IU/L, an ALT (6 h) of 34.6 IU/L and an AST (6 h) of 65.6 IU/L. For the same compound, the BUN (6 h) was 9.8 mg/dL, the CRE (6 h) was 0.5 mg/dL and the Ca (6 h) was 10.8 mg/dL. For the same compound, the Cl (6 h) was 105.2 meq/L, the DBIL (6 h) was 0.022 mg/dL and the GLC (6 h) was 198.6 mg/dL. It also gave an IP (6 h) of 9.9 mg/dL, a K (6 h) of 4.7 meq/L and an LDH (6 h) of 74 IU/L. It also gave a Na (6 h) of 139.4 meq/L, a PL (6 h) of 130.6 mg/dL and an RALB (6 h) of 3.7 g/dL. The TBIL (6 h) was 0.4 mg/dL, the TC (6 h) was 73 mg/dL and the TG (6 h) was 46.8 mg/dL. The TP (6 h) was 5.4 g/dL, the gamma-GTP (6 h) was 1.6 IU/L and the TERMINAL_BW (9 h) was 215 g. The APTT (9 h) was 16.5 s, the Bas (9 h) was 0% and the Eos (9 h) was 1.2%. It also gave a Fbg (9 h) of 215.4 mg/dL, a Hb (9 h) of 13 g/dL and a Ht (9 h) of 39.6%. For the same compound, the Lym (9 h) was 81.4%, the MCH (9 h) was 21.9 pg and the MCHC (9 h) was 32.8%. For the same compound, the MCV (9 h) was 66.8 fL, the Mono (9 h) was 5% and the Neu (9 h) was 12.8%. The PT (9 h) was 11.7 s, the Plat (9 h) was 112.2 x10_4/uL and the RBC (9 h) was 593.2 x10_4/ul. For the same compound, the Ret (9 h) was 8.7%, the WBC (9 h) was 113.3 x10_2/uL and the KIDNEY_L (9 h) was 1 g. It also gave a KIDNEY_R (9 h) of 1 g, a KIDNEY_TOTAL (9 h) of 1.9 g and an LIVER (9 h) of 9.4 g. It also gave an A/G (9 h) of 2.1, an ALP (9 h) of 772.2 IU/L and an ALT (9 h) of 31.2 IU/L. It also gave an AST (9 h) of 60.8 IU/L, a BUN (9 h) of 13.6 mg/dL and a CRE (9 h) of 0.4 mg/dL. For the same compound, the Ca (9 h) was 10.7 mg/dL, the Cl (9 h) was 106.6 meq/L and the DBIL (9 h) was 0.022 mg/dL. It also gave a GLC (9 h) of 192.6 mg/dL, an IP (9 h) of 10.1 mg/dL and a K (9 h) of 4.8 meq/L. It also gave an LDH (9 h) of 69.8 IU/L, a Na (9 h) of 139 meq/L and a PL (9 h) of 133.4 mg/dL. The RALB (9 h) was 3.8 g/dL, the TBIL (9 h) was 0.4 mg/dL and the TC (9 h) was 69.6 mg/dL. For the same compound, the TG (9 h) was 49.2 mg/dL, the TP (9 h) was 5.5 g/dL and the gamma-GTP (9 h) was 1.6 IU/L. It also gave a TERMINAL_BW (24 h) of 230.9 g, an APTT (24 h) of 16.3 s and a Bas (24 h) of 0%. It also gave an Eos (24 h) of 1.4%, a Fbg (24 h) of 203.8 mg/dL and a Hb (24 h) of 13.2 g/dL. The Ht (24 h) was 39.8%, the Lym (24 h) was 71.6% and the MCH (24 h) was 21.6 pg. It also gave an MCHC (24 h) of 33.1%, an MCV (24 h) of 65.3 fL and a Mono (24 h) of 8.2%. For the same compound, the Neu (24 h) was 19%, the PT (24 h) was 11.2 s and the Plat (24 h) was 117.1 x10_4/uL. The RBC (24 h) was 609.4 x10_4/ul, the Ret (24 h) was 8.3% and the WBC (24 h) was 114 x10_2/uL. For the same compound, the KIDNEY_L (24 h) was 1.1 g, the KIDNEY_R (24 h) was 1 g and the KIDNEY_TOTAL (24 h) was 2.1 g. The LIVER (24 h) was 11 g, the A/G (24 h) was 2.4 and the ALP (24 h) was 834.2 IU/L. It also gave an ALT (24 h) of 39.8 IU/L, an AST (24 h) of 62.6 IU/L and a BUN (24 h) of 18 mg/dL. It also gave a CRE (24 h) of 0.5 mg/dL, a Ca (24 h) of 10.9 mg/dL and a Cl (24 h) of 106.4 meq/L. It also gave a DBIL (24 h) of 0.012 mg/dL, a GLC (24 h) of 198.8 mg/dL and an IP (24 h) of 8.5 mg/dL. For the same compound, the K (24 h) was 5.2 meq/L, the LDH (24 h) was 86.4 IU/L and the Na (24 h) was 141 meq/L. The PL (24 h) was 155 mg/dL, the RALB (24 h) was 3.9 g/dL and the TBIL (24 h) was 0.4 mg/dL. The TC (24 h) was 80 mg/dL, the TG (24 h) was 84.6 mg/dL and the TP (24 h) was 5.5 g/dL. For the same compound, the gamma-GTP (24 h) was 1.2 IU/L.
